System: Colo205 colorectal cancer cell xenografts
Assay: Colo205 xenograft tumor volume, 2xCon4(C) (2.8 μg) and Avastin™ (10 μg) (Example 7)
Format: in vivo, female athymic nude mice (CD1 Nu/Nu)
Conditions: Avastin™ 10 μg IP twice per week; 2xCon4(C) 2.8 μg sc twice per week; day 14 to day 42
Experimental: Xenografts of Colo205 cells injected into female athymic nude mice were treated with 2xCon4(C) alone, Avastin™, or a combination of the two as described below.
Tumors were induced by injecting Colo205 cells subcutaneously into female athymic nude mice (CD1 Nu/Nu), 8-10 weeks old. All of the mice were obtained from Charles River Laboratories (Raleigh, N.C.). Cells were harvested from subconfluent cultures using trypsin/EDTA. The cells were greater than 95% viable by […] exclusion. 2×10^6 cells in 0.2 ml were injected subcutaneously into the right flank of each mouse.
On day 14 after injection the tumors averaged 250 mm^3, and the mice were divided at random into four groups of 10 mice each. Group 1 received IgG1 at a dose of 10 μg and Fc fragment control at a dose of 2.8 μg and served as a negative control. Group 2 received Avastin™ at a dose of 10 μg and Fc fragment control at 2.8 μg. Group 3 received 2xCon4(C) at a dose of 2.8 μg and human IgG1 at a dose of 10 μg. […]
The experiment was performed “blind” in accordance with the Cancer Pharmacology Blinded Study Guidelines. Tumors were measured and body weights were determined twice each week. Tumors were measured with an electronic digital caliper. Tumor volumes were calculated as the length×width×height measurements and expressed in mm^3.
The data were analyzed by repeated measures ANOVA for tumor volumes over time using STATVIEW v. […]

Substance: Avastin™: recombinant humanized monoclonal antibody that binds directly to VEGF, sold by Genentech
- reduction / inhibition of tumor growth compared to the control: 18%
